Experimental data published in ChEMBL document CHEMBL1201862, “PubChem BioAssay data set” (2004).
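Test compounds were applied to cells in 96-well plates for 48 hours at 5 doses. Abbreviation: GI50, concentration required for 50% inhibition of growth.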 Active and inactive are the calls of the source. Cut-off read from the data, not from the text of the source: active = GI50 up to about 1.1 µM and inactive = higher.

Key:
Experiment in all cases: NCI-60 cell line screen, 48 h
[1] = system: U-251
[2] = system: Malme-3M
[3] = system: SW-620
[4] = system: TK-10
[5] = system: A549
[6] = system: SK-MEL-2
[7] = system: HOP-92
[8] = system: NCI-H23
[9] = system: SF-295
[10] = system: IGROV-1
[11] = system: CCRF-CEM
[12] = system: NCI-H226
[13] = system: OVCAR-3
[14] = system: OVCAR-4
[15] = system: SNB-19
[16] = system: NCI-H460
[17] = system: SK-MEL-28

SMILES	GI50 [1]	GI50 [2]	GI50 [3]	GI50 [4]	GI50 [5]	GI50 [6]	GI50 [7]	GI50 [8]	GI50 [9]	GI50 [10]	GI50 [11]	GI50 [12]	GI50 [13]	GI50 [14]	GI50 [15]	GI50 [16]	GI50 [17]
O=C1O[B-](c2ccccc2)(c2ccccc2)[NH2+]C1CS (stereo not drawn)	63.5 µM (inactive)	38.2 µM (inactive)	24.5 µM (inactive)	85.1 µM (inactive)	92.3 µM (inactive)	83.8 µM (inactive)	27.3 µM (inactive)	61.2 µM (inactive)	> 100 µM (inactive)	78 µM (inactive)	17.7 µM (inactive)	68.4 µM (inactive)	38.8 µM (inactive)	47.2 µM (inactive)	> 100 µM (inactive)	66.1 µM (inactive)	66.1 µM (inactive)
Cc1c(/C=N/NC(=O)c2cc(Br)cc(Br)c2O)c(=O)n(-c2ccccc2)n1C	69 µM (inactive)	67.3 µM (inactive)	53.7 µM (inactive)	69.8 µM (inactive)	> 100 µM (inactive)	> 100 µM (inactive)	30.1 µM (inactive)	77.3 µM (inactive)	> 100 µM (inactive)	1.22 µM (inactive)	23.3 µM (inactive)	90.6 µM (inactive)	29.9 µM (inactive)	> 100 µM (inactive)	> 100 µM (inactive)	39.2 µM (inactive)	20.8 µM (inactive)
Cc1c(C(=O)CSc2nc3cc([N+](=O)[O-])ccc3[nH]2)c(=O)n(-c2ccccc2)n1C	> 100 µM (inactive)	49.7 µM (inactive)	> 100 µM (inactive)	> 100 µM (inactive)	> 100 µM (inactive)	> 100 µM (inactive)	> 100 µM (inactive)	> 100 µM (inactive)	> 100 µM (inactive)	> 100 µM (inactive)	> 100 µM (inactive)	> 100 µM (inactive)	71.8 µM (inactive)	> 100 µM (inactive)	> 100 µM (inactive)	> 100 µM (inactive)	> 100 µM (inactive)
Cc1cc2c(=O)c3ccc(Cl)cc3[nH]c2c(C(N)=O)c1C	> 100 µM (inactive)	> 100 µM (inactive)	> 100 µM (inactive)	> 100 µM (inactive)	> 100 µM (inactive)	> 100 µM (inactive)	> 100 µM (inactive)	> 100 µM (inactive)	> 100 µM (inactive)	> 100 µM (inactive)	> 100 µM (inactive)	–	> 100 µM (inactive)	> 100 µM (inactive)	> 100 µM (inactive)	> 100 µM (inactive)	> 100 µM (inactive)
O=C1CC2(C[C@@H]3CCCCCCCCC[C@@H](C3)C2)N1 (stereo partly drawn)	16.6 µM (inactive)	11.8 µM (inactive)	18.7 µM (inactive)	17.1 µM (inactive)	21.8 µM (inactive)	19.8 µM (inactive)	10.8 µM (inactive)	16.7 µM (inactive)	17 µM (inactive)	12.9 µM (inactive)	17.5 µM (inactive)	14.3 µM (inactive)	–	17.9 µM (inactive)	20 µM (inactive)	16.6 µM (inactive)	17.2 µM (inactive)
CNS(=O)(=O)NN(C)S(=O)(=O)c1ccc(Br)cc1	72.9 µM (inactive)	> 100 µM (inactive)	> 100 µM (inactive)	> 100 µM (inactive)	> 100 µM (inactive)	> 100 µM (inactive)	–	> 100 µM (inactive)	> 100 µM (inactive)	> 100 µM (inactive)	> 100 µM (inactive)	> 100 µM (inactive)	> 100 µM (inactive)	> 100 µM (inactive)	> 100 µM (inactive)	–	–
CCOc1ccc(/C=C/C(=O)c2sc(NNC(C)=O)nc2C)cc1	> 100 µM (inactive)	> 100 µM (inactive)	> 100 µM (inactive)	> 100 µM (inactive)	> 100 µM (inactive)	> 100 µM (inactive)	> 100 µM (inactive)	> 100 µM (inactive)	> 100 µM (inactive)	> 100 µM (inactive)	> 100 µM (inactive)	–	> 100 µM (inactive)	–	> 100 µM (inactive)	> 100 µM (inactive)	> 100 µM (inactive)
NC(CCSC(F)F)C(=O)O (stereo not drawn)	> 100 µM (inactive)	> 100 µM (inactive)	> 100 µM (inactive)	> 100 µM (inactive)	> 100 µM (inactive)	> 100 µM (inactive)	> 100 µM (inactive)	> 100 µM (inactive)	> 100 µM (inactive)	> 100 µM (inactive)	> 100 µM (inactive)	> 100 µM (inactive)	> 100 µM (inactive)	> 100 µM (inactive)	> 100 µM (inactive)	> 100 µM (inactive)	> 100 µM (inactive)
COC(=O)c1c(-c2ccccc2)sc(-c2cccc3ccccc23)c1C(=O)OC	> 100 µM (inactive)	21.9 µM (inactive)	> 100 µM (inactive)	> 100 µM (inactive)	> 100 µM (inactive)	> 100 µM (inactive)	> 100 µM (inactive)	> 100 µM (inactive)	> 100 µM (inactive)	> 100 µM (inactive)	> 100 µM (inactive)	> 100 µM (inactive)	81.1 µM (inactive)	84.7 µM (inactive)	> 100 µM (inactive)	> 100 µM (inactive)	> 100 µM (inactive)
NC(CCc1ncc(-c2ccccc2)s1)C(=O)O (stereo not drawn)	> 100 µM (inactive)	> 100 µM (inactive)	> 100 µM (inactive)	> 100 µM (inactive)	> 100 µM (inactive)	–	> 100 µM (inactive)	> 100 µM (inactive)	> 100 µM (inactive)	> 100 µM (inactive)	> 100 µM (inactive)	17.4 µM (inactive)	> 100 µM (inactive)	–	> 100 µM (inactive)	> 100 µM (inactive)	> 100 µM (inactive)
COc1nc2nccc-2c2occn12	> 100 µM (inactive)	> 100 µM (inactive)	> 100 µM (inactive)	> 100 µM (inactive)	> 100 µM (inactive)	> 100 µM (inactive)	> 100 µM (inactive)	> 100 µM (inactive)	> 100 µM (inactive)	> 100 µM (inactive)	–	–	> 100 µM (inactive)	> 100 µM (inactive)	> 100 µM (inactive)	> 100 µM (inactive)	> 100 µM (inactive)
COc1cc2c(cc1OC)C(=O)C(C1=C(SC(=N)N)C(=O)c3cc(OC)c(OC)cc31)C2 (stereo not drawn)	> 100 µM (inactive)	> 100 µM (inactive)	> 100 µM (inactive)	–	> 100 µM (inactive)	> 100 µM (inactive)	–	> 100 µM (inactive)	> 100 µM (inactive)	> 100 µM (inactive)	> 100 µM (inactive)	> 100 µM (inactive)	> 100 µM (inactive)	78.9 µM (inactive)	> 100 µM (inactive)	> 100 µM (inactive)	> 100 µM (inactive)
COc1cc(NCC(C#N)C#N)ccc1/N=N/c1ccc([N+](=O)[O-])cc1	> 100 µM (inactive)	> 100 µM (inactive)	> 100 µM (inactive)	> 100 µM (inactive)	> 100 µM (inactive)	> 100 µM (inactive)	–	> 100 µM (inactive)	> 100 µM (inactive)	> 100 µM (inactive)	> 100 µM (inactive)	> 100 µM (inactive)	64.3 µM (inactive)	> 100 µM (inactive)	65.5 µM (inactive)	> 100 µM (inactive)	> 100 µM (inactive)
COC(=O)/C(C#N)=C(\N)C(Cl)(Cl)Cl	16.5 µM (inactive)	–	0.456 µM (active)	2.55 µM (inactive)	3.33 µM (inactive)	5.53 µM (inactive)	2.99 µM (inactive)	4.82 µM (inactive)	5.09 µM (inactive)	–	0.338 µM (active)	–	3.3 µM (inactive)	2.67 µM (inactive)	40.8 µM (inactive)	4.33 µM (inactive)	2 µM (inactive)
NC(=O)C(=Cc1ccc(CP(=O)(O)O)cc1)C(N)=O	> 100 µM (inactive)	> 100 µM (inactive)	> 100 µM (inactive)	> 100 µM (inactive)	> 100 µM (inactive)	> 100 µM (inactive)	> 100 µM (inactive)	> 100 µM (inactive)	> 100 µM (inactive)	> 100 µM (inactive)	–	–	> 100 µM (inactive)	> 100 µM (inactive)	> 100 µM (inactive)	> 100 µM (inactive)	> 100 µM (inactive)
COc1ccc2cc3[n+](cc2c1O)CCc1cc2c(cc1-3)OCO2 [BERBERRUBINE CHLORIDE]	> 100 µM (inactive)	> 100 µM (inactive)	92.9 µM (inactive)	> 100 µM (inactive)	96.6 µM (inactive)	> 100 µM (inactive)	–	70 µM (inactive)	> 100 µM (inactive)	> 100 µM (inactive)	80.7 µM (inactive)	> 100 µM (inactive)	> 100 µM (inactive)	> 100 µM (inactive)	> 100 µM (inactive)	54 µM (inactive)	> 100 µM (inactive)
CCCOP1(=O)C=CC(Cl)=C(C)C1 (stereo not drawn)	40.1 µM (inactive)	21 µM (inactive)	19.3 µM (inactive)	42.4 µM (inactive)	> 54.3 µM (inactive)	23.9 µM (inactive)	33.1 µM (inactive)	30.8 µM (inactive)	45.8 µM (inactive)	97.7 µM (inactive)	11.9 µM (inactive)	–	27.4 µM (inactive)	36.6 µM (inactive)	> 70 µM (inactive)	50.7 µM (inactive)	19.3 µM (inactive)
